Source: ChEMBL document CHEMBL5143744, “Discovery of Tenapanor: A First-in-Class Minimally Systemic Inhibitor of Intestinal Na+/H+ Exchanger Isoform 3” (ACS Med Chem Lett, 2022)
Values belong to the compound of their own block, whether it stands above or below them. The source made the active and inactive calls. No cut-off for these calls is given here.

Experiments:
[1] = Dose normalized AUC in Sprague-Dawley rat at 5.3 mg/kg, po administered via gavage by LC-MS/MS analysis; format: ADME, organism-based; conditions: in vivo
[2] = In vivo inhibition of NEH3 in Sprague-Dawley rat assessed as sodium excretion in urine at 3 mg/kg, po administered via gavage measured after 16 hrs by ion chromatography relative to control; set-up: scale not given: the % may be the effect or the level left
[3] = In vivo inhibition of NEH3 in Sprague-Dawley rat assessed as fecal water content at 3 mg/kg, po administered via gavage measured after 6 hrs; format: functional; set-up: scale not given: the % may be the effect or the level left
[4] = Drug metabolism in Sprague-Dawley rat at 30 mg/kg, po administered via gavage by LC-MS/MS analysis; format: ADME, organism-based; conditions: in vivo
[5] = In vivo inhibition of NEH3 in Sprague-Dawley rat assessed as increase in fecal water content at 0.1 to 3 mg/kg, po administered via gavage measured after 6 hrs; format: functional; set-up: scale not given: the % may be the effect or the level left; conditions: dose 0.1-3 mg/kg
[6] = Cmax in Sprague-Dawley rat at 30 mg/kg, po administered via gavage by LC-MS/MS analysis; format: ADME, organism-based; set-up: dose 30 mg/kg, route po; conditions: in vivo
[7] = Drug metabolism in Sprague-Dawley rat feces at 0.3 mg/kg, po administered via gavage measured after 64 hrs by LC-MS/MS analysis; format: ADME, organism-based; conditions: in vivo
Rattus norvegicus = assay: In vivo inhibition of NEH3 in Sprague-Dawley rat assessed as reduction in sodium excretion in urine at 0.1 to 3 mg/kg, po administered via gavage measured after 16 hrs by ion chromatography; format: functional, organism-based; conditions: dose 0.1-3 mg/kg
hERG (KCNH2) = hERG (KCNH2) (Homo sapiens, UniProt Q12809); assay: Inhibition of human ERG at 10 uM relative to control; format: toxicity
[8] = Drug recovery in Sprague-Dawley rat feces at 0.3 mg/kg, po administered via gavage measured after 64 hrs by LC-MS/MS analysis; format: ADME, organism-based; conditions: faeces, read-out: Drug recovery
[9] = In vivo inhibition of NEH3 in Sprague-Dawley rat assessed as fecal form score at 3 mg/kg, po administered via gavage measured after 6 hrs; format: functional
[10] = AUC in Sprague-Dawley rat at 22 mg/kg, po administered via gavage by LC-MS/MS analysis; conditions: in vivo
[11] = molecular target: Sodium/hydrogen exchanger 3 (Rattus norvegicus, UniProt P26433); assay: Inhibition of rat NHE3 expressed in opossum kidney cells assessed as reduction in Na-HEPES buffer-mediated pH recovery in presence of NEH1 inhibitor ethyl isopropyl amiloride by BCECF-AM dye based fluorescence assay; format: cell-based, Kidney epithelial cell
[12] = Cmax in Sprague-Dawley rat at 22 mg/kg, po administered via gavage by LC-MS/MS analysis; format: ADME, organism-based; set-up: dose 22 mg/kg, route po; conditions: in vivo
[13] = AUC in Sprague-Dawley rat at 1.8 mg/kg, po administered via gavage by LC-MS/MS analysis; conditions: in vivo
[14] = molecular target: T1, Sodium/hydrogen exchanger 3 (Homo sapiens, UniProt P48764); assay: Inhibition of human NHE3 expressed in opossum kidney cells assessed as reduction in Na-HEPES buffer-mediated pH recovery in presence of NEH1 inhibitor ethyl isopropyl amiloride by BCECF-AM dye based fluorescence assay; format: cell-based, Kidney epithelial cell
T1 sequence (P48764 whole entry): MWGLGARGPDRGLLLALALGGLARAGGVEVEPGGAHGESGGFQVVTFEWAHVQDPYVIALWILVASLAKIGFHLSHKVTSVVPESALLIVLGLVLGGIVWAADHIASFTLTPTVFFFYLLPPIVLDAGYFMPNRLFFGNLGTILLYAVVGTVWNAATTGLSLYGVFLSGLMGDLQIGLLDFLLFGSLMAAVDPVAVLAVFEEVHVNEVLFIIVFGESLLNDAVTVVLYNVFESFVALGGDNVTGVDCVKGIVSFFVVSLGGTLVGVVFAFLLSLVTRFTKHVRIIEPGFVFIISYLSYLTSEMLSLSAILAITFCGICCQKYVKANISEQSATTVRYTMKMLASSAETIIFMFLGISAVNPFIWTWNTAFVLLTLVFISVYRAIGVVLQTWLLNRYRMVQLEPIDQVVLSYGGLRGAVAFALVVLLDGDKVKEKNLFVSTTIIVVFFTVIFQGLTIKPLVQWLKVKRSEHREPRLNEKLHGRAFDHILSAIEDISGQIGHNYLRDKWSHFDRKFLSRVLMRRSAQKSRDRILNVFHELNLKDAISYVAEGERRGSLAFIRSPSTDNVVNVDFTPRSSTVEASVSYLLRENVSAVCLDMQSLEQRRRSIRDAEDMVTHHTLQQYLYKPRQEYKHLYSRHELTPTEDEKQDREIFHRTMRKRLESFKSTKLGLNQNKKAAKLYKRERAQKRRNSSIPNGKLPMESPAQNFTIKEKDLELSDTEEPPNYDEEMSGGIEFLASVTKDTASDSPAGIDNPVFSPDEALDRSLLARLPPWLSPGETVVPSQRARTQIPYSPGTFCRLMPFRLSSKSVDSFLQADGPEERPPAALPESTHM

[15] = Cmax in Sprague-Dawley rat at 1.8 mg/kg, po administered via gavage by LC-MS/MS analysis; format: ADME, organism-based; set-up: dose 1.8 mg/kg, route po; conditions: in vivo
[16] = Cmax in Sprague-Dawley rat at 19 mg/kg, po administered via gavage by LC-MS/MS analysis; format: ADME, organism-based; set-up: dose 19 mg/kg, route po; conditions: in vivo
[17] = AUC in Sprague-Dawley rat at 19 mg/kg, po administered via gavage by LC-MS/MS analysis; conditions: in vivo
[18] = Cmax in Sprague-Dawley rat at 23 mg/kg, po administered via gavage by LC-MS/MS analysis; format: ADME, organism-based; set-up: dose 23 mg/kg, route po; conditions: in vivo
[19] = AUC in Sprague-Dawley rat at 23 mg/kg, po administered via gavage by LC-MS/MS analysis; conditions: in vivo
[20] = AUC in Sprague-Dawley rat at 17 mg/kg, po administered via gavage by LC-MS/MS analysis; conditions: in vivo
[21] = Cmax in Sprague-Dawley rat at 17 mg/kg, po administered via gavage by LC-MS/MS analysis; format: ADME, organism-based; set-up: dose 17 mg/kg, route po; conditions: in vivo
[22] = Cmax in Sprague-Dawley rat at 28 mg/kg, po administered via gavage by LC-MS/MS analysis; format: ADME, organism-based; set-up: dose 28 mg/kg, route po; conditions: in vivo
[23] = AUC in Sprague-Dawley rat at 28 mg/kg, po administered via gavage by LC-MS/MS analysis; conditions: in vivo
[24] = Cmax in Sprague-Dawley rat at […], po administered via gavage by LC-MS/MS analysis; format: ADME, organism-based; set-up: dose 7.2 mg/kg, route po; conditions: in vivo
[25] = Dose normalized AUC in Sprague-Dawley rat at […], po administered via gavage by LC-MS/MS analysis; format: ADME, organism-based; conditions: in vivo, dose 7.2 mg/kg
[26] = Toxicity in Sprague-Dawley rat assessed as pathological changes at 30 mg/kg, po administered for 7 days measured on day 8 by microscopy; format: organism-based; conditions: in vivo, 192 h, time 8 day
[27] = Toxicity in Sprague-Dawley rat assessed as change in aspartate aminotransferase level at 30 mg/kg, po administered for 7 days measured on day 8; format: organism-based; conditions: in vivo, 192 h, time 8 day
[28] = Drug metabolism in Sprague-Dawley rat feces at 0.1 mg/kg, po administered via gavage measured after 72 hrs by LC-MS/MS analysis; format: ADME, organism-based; conditions: in vivo
[29] = Toxicity in Sprague-Dawley rat assessed as gross pathological changes at 30 mg/kg, po administered for 7 days measured on day 8 by necropsy; format: organism-based; conditions: in vivo, 192 h, time 8 day
[30] = Drug recovery in Sprague-Dawley rat feces at 0.1 mg/kg, po administered via gavage measured after 72 hrs by LC-MS/MS analysis; format: ADME, organism-based; conditions: faeces, read-out: Drug recovery
[31] = Toxicity in Sprague-Dawley rat assessed as diarrhea at 30 mg/kg, po administered for 7 days; format: organism-based; conditions: in vivo, 168 h, time 7 day
[32] = Toxicity in Sprague-Dawley rat assessed as change in alanine aminotransferase level at 30 mg/kg, po administered for 7 days measured on day 8; format: organism-based; conditions: in vivo, 192 h, time 8 day

Sodium/hydrogen exchanger 3 (Rattus norvegicus, UniProt P26433), sequence (P26433 whole entry): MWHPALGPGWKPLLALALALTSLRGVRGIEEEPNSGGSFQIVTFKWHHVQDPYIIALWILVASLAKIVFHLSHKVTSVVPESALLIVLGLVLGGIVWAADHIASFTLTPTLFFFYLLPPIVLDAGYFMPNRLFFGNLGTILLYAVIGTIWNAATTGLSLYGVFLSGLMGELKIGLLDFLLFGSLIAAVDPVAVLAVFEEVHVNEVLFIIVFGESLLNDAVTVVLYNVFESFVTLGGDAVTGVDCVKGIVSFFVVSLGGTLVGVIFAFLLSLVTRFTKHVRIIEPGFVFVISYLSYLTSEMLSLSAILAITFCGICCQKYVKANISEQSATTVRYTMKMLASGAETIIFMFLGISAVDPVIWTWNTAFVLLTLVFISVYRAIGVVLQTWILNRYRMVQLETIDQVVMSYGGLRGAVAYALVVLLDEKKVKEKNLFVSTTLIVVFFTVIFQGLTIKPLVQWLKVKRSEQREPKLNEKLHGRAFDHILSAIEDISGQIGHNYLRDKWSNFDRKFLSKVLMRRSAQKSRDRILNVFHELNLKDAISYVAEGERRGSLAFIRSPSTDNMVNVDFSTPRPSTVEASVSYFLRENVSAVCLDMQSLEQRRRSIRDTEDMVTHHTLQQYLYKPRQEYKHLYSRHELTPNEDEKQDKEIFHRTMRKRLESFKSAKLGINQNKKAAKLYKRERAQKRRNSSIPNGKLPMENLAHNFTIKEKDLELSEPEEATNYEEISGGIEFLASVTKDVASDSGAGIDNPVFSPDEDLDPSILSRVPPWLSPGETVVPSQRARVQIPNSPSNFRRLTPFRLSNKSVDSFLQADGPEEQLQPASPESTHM
hERG (KCNH2), sequence (Q12809 whole entry): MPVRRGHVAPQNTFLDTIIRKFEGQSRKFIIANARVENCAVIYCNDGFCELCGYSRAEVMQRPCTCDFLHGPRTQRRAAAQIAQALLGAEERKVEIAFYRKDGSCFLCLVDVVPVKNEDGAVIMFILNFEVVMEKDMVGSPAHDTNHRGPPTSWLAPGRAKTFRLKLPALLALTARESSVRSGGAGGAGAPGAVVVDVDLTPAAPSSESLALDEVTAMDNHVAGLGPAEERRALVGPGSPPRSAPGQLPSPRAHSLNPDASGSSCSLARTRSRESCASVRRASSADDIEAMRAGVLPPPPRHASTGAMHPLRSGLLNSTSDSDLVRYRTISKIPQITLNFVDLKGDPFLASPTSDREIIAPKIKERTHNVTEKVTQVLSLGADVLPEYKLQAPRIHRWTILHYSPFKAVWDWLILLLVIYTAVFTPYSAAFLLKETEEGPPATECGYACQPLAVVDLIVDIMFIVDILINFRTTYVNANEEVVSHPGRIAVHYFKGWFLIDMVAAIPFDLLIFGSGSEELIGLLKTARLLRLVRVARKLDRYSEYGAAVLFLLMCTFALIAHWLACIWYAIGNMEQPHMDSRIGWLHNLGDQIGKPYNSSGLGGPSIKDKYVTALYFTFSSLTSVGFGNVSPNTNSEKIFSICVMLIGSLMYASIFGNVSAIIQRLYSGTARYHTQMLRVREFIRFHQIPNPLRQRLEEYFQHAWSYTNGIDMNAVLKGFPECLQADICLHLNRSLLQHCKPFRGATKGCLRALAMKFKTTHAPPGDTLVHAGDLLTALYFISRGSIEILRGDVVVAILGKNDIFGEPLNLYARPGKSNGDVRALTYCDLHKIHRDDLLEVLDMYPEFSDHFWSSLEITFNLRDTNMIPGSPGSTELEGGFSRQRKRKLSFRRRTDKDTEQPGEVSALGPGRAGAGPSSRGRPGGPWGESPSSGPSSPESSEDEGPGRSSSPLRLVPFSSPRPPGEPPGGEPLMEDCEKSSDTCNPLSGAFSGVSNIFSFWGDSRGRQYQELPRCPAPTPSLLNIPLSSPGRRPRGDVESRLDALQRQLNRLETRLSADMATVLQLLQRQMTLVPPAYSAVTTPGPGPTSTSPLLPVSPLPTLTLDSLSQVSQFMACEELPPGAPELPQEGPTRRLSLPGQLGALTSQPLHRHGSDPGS

Compound: CN1Cc2c(Cl)cc(Cl)cc2C(c2ccc(S(=O)(=O)NCCOCCOCCOCCNC(=O)NCCOCCOCCOCCNS(=O)(=O)c3ccc(C4CN(C)Cc5c(Cl)cc(Cl)cc54)cc3)cc2)C1 (configuration not stated)
- AUC [1]: < 19 ng·h/mL
- Activity [2]: 25%
- Activity [3]: 60%

- Drug metabolism [4]: Metabolite_Notdetected
- Cmax ([6]; Sprague-Dawley, read-out: Cmax): < 2 ng/mL
- Drug metabolism [7]: Metabolite_Notdetected
- dose excreted at 64 h [8]: 117%
Compound: CN1Cc2c(Cl)cc(Cl)cc2[C@H](c2cccc(S(=O)(=O)NCCOCCOCCNC(=O)COCC(=O)NCCOCCOCCNS(=O)(=O)c3cccc([C@@H]4CN(C)Cc5c(Cl)cc(Cl)cc54)c3)c2)C1
- Activity [5]: 10%
- inhibition (Rattus norvegicus): Active
- inhibition at 10 µM (hERG (KCNH2)): < 50%

Compound: CN1Cc2c(Cl)cc(Cl)cc2C(c2cccc(S(=O)(=O)NCCOCCOCCNC(=O)c3ccc(C(=O)NCCOCCOCCNS(=O)(=O)c4cccc(C5CN(C)Cc6c(Cl)cc(Cl)cc65)c4)cc3)c2)C1 (racemic)
- Activity [9]: 2
- AUC [10]: < 8 ng·h/mL
- IC50 [11]: 6310 nM
- Activity [2]: 24%
- Cmax [12]: < 2 ng/mL
- Activity [3]: 58%

Compound: CN1Cc2c(Cl)cc(Cl)cc2C(c2cccc(S(=O)(=O)NCCOCCOCCOCCNC(=O)NCCOCCOCCOCCNS(=O)(=O)c3cccc(C4CN(C)Cc5c(Cl)cc(Cl)cc54)c3)c2)C1 (racemic)
- Activity [9]: 1
- IC50 [11]: 100 nM
- Activity [2]: 87%
- AUC [13]: < 75 ng·h/mL
- IC50 [14]: 200 nM
- Cmax [15]: < 20 ng/mL
- Activity [3]: 50%

Compound: CN1Cc2c(Cl)cc(Cl)cc2C(c2ccc(S(=O)(=O)NCCOCCOCCOCCNC(=O)c3ccc(C(=O)NCCOCCOCCOCCNS(=O)(=O)c4ccc(C5CN(C)Cc6c(Cl)cc(Cl)cc65)cc4)cc3)cc2)C1 (racemic)
- Activity [9]: 1.5
- Cmax [16]: < 3 ng/mL
- AUC [17]: < 9 ng·h/mL
- IC50 [11]: 12.6 nM
- Activity [2]: 50%
- IC50 [14]: 39.8 nM
- Activity [3]: 56%

Compound: CN1Cc2c(Cl)cc(Cl)cc2C(c2ccc(S(=O)(=O)NCCOCCOCCNC(=O)c3ccc(C(=O)NCCOCCOCCNS(=O)(=O)c4ccc(C5CN(C)Cc6c(Cl)cc(Cl)cc65)cc4)cc3)cc2)C1 (racemic)
- Cmax [18]: < 3 ng/mL
- Activity [9]: 2
- IC50 [11]: 398 nM
- Activity [2]: 45%
- AUC [19]: < 8 ng·h/mL
- Activity [3]: 56%

Compound: CN1Cc2c(Cl)cc(Cl)cc2C(c2ccc(S(=O)(=O)NCCOCCOCCNC(=O)NCCOCCOCCNS(=O)(=O)c3ccc(C4CN(C)Cc5c(Cl)cc(Cl)cc54)cc3)cc2)C1 (racemic)
- AUC [20]: < 8 ng·h/mL
- Activity [9]: 1
- Activity [2]: 107%
- Cmax [21]: < 2 ng/mL
- Activity [3]: 49%

Compound: CN1Cc2c(Cl)cc(Cl)cc2C(c2cccc(S(=O)(=O)NCCOCCOCCOCCNC(=O)CCC(=O)NCCOCCOCCOCCNS(=O)(=O)c3cccc(C4CN(C)Cc5c(Cl)cc(Cl)cc54)c3)c2)C1 (racemic)
- Activity [9]: 1.5
- Cmax [22]: < 2 ng/mL
- Activity [2]: 56%
- AUC [23]: < 8 ng·h/mL
- Activity [3]: 54%

Compound: CN1Cc2c(Cl)cc(Cl)cc2C(c2cccc(S(=O)(=O)NCCOCCOCCOCCNC(=O)c3ccc(C(=O)NCCOCCOCCOCCNS(=O)(=O)c4cccc(C5CN(C)Cc6c(Cl)cc(Cl)cc65)c4)cc3)c2)C1 (racemic)
- Activity [9]: 1
- Cmax [24]: < 4 ng/mL
- IC50 [11]: 25.1 nM
- Activity [2]: 87%
- IC50 [14]: 50.1 nM
- AUC [25]: < 12 ng·h/mL
- Activity [3]: 53%

Compound: CN1Cc2c(Cl)cc(Cl)cc2[C@H](c2cccc(S(=O)(=O)NCCOCCOCCNC(=O)NCCCCNC(=O)NCCOCCOCCNS(=O)(=O)c3cccc([C@@H]4CN(C)Cc5c(Cl)cc(Cl)cc54)c3)c2)C1 [TENAPANOR]
- Drug metabolism [4]: Metabolite_Notdetected
- Activity [26]: Non-Toxic
- Activity [5]: 10%
- Activity [27]: Non-Toxic
- Drug metabolism [28]: Metabolite_Detected
- Cmax [6]: < 3 ng/mL
- inhibition (Rattus norvegicus): Active
- Activity [29]: Non-Toxic
- IC50 [11]: 15.8 nM
- inhibition at 10 µM (hERG (KCNH2)): < 50%
- dose excreted at 72 h [30]: 92%
- IC50 [14]: 0.501 nM
- Activity [31]: Toxic
- Activity [32]: Non-Toxic
